According to PMC6193938, “Characterization of a novel AICARFT inhibitor which potently elevates ZMP and has anti-tumor activity in murine models” (Scientific Reports, 2018):

Columns and labels:
Pharmacokinetic studies = format: in vivo; conditions: mouse
Method: Blood samples were obtained through tail clip at 0, 0.08 (IV only), 0.25, 0.75, 2, 4, 8, and 24 hours where approximately 20 µL of blood was filled to capacity into EDTA-coated capillary tubes (Fisher Scientific,) and spotted on to Whatman® DMPK-C DBS collection (GE Healthcare Bio-Sciences). Once spotted, the cards were allowed to dry for 2 hours, placed in Ziploc® bags (S.C. Johnson & Son, Inc.) and shipped to the bioanalytical facility at ambient temperature. Punches (3 mm) from DBS cards were extracted with 180 µL of a 20 ng/mL analog IS (proprietary Lilly compound) in methanol/acetonitrile (1:1, v/v) solution in 96-well plates. Samples were quantitated using LC-MS analysis (AB Sciex® API 4000 triple-quadrupole mass spectrometer (Life Technologies Corporation). PK parameters were calculated for concentration time profiles using Watson LIMS version 7.4 (Thermo Scientific).

MDA-MB-231met2 xenograft = experiment: Antitumor efficacy and tumor metabolites, mouse xenograft; format: in vivo; conditions: after 22 days of dosing
BRK = target: T1, BRK (Homo sapiens, UniProt Q13882); experiment: CEREP protein kinase assay; format: biochemical
T1 construct: purchased CEREP Panlabs (Eurofins)

CDK1 = target: T2, CDK1 (Homo sapiens, UniProt P06493); experiment: CEREP protein kinase assay; format: biochemical
T2 construct: purchased CEREP Panlabs (Eurofins)

CDK4 = target: T3, CDK4 (Homo sapiens, UniProt P11802); experiment: CEREP protein kinase assay; format: biochemical
T3 construct: purchased CEREP Panlabs (Eurofins)

CK2 = target: T4, CK2 (Homo sapiens, UniProt P68400); experiment: CEREP protein kinase assay; format: biochemical
T4 construct: purchased CEREP Panlabs (Eurofins)

DDR2 = target: T5, DDR2 (Homo sapiens, UniProt Q16832); experiment: CEREP protein kinase assay; format: biochemical
T5 construct: purchased CEREP Panlabs (Eurofins)
T5 sequence (Q16832 22-855): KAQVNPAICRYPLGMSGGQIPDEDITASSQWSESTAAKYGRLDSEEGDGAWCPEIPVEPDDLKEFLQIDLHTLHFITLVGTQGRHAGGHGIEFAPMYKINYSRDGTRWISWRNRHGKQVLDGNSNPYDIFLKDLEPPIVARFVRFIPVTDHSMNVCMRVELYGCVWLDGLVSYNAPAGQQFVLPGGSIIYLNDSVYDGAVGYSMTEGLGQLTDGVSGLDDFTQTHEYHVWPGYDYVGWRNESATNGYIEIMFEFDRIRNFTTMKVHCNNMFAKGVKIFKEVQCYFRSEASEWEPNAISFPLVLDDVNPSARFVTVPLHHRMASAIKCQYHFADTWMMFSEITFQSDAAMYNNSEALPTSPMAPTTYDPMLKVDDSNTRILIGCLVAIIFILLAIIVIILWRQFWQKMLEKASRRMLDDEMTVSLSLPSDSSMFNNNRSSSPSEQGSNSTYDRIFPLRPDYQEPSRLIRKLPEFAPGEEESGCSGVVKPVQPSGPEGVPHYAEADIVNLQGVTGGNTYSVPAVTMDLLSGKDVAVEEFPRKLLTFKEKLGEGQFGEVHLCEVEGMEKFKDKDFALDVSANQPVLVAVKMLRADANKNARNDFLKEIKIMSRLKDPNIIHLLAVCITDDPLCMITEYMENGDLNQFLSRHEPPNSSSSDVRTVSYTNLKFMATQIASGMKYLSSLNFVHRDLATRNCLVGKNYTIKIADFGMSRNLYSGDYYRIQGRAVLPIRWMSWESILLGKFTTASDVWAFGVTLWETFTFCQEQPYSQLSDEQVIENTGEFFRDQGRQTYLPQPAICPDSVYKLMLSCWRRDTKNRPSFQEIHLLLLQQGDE

MAPKAPK5 = target: T6, MAPKAPK5 (Homo sapiens, UniProt Q8IW41); experiment: CEREP protein kinase assay; format: biochemical
T6 construct: purchased CEREP Panlabs (Eurofins)
T6 sequence (Q8IW41 1-473): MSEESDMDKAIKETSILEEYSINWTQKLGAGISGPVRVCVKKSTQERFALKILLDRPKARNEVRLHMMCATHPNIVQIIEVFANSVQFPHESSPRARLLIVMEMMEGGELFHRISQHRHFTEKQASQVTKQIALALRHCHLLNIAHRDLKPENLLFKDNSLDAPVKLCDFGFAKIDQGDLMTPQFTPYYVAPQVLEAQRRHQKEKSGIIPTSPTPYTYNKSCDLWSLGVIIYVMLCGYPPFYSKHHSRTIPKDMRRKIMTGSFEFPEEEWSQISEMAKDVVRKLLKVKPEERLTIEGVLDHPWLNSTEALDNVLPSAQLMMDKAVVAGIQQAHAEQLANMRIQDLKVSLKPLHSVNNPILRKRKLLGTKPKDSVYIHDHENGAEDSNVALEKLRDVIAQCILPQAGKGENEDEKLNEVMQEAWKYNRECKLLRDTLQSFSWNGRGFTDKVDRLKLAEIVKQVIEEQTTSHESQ

PKAa = target: T7, PKAa (Homo sapiens, UniProt P17612); experiment: CEREP protein kinase assay; format: biochemical
T7 construct: purchased CEREP Panlabs (Eurofins)

ROCK1 = target: T8, ROCK1 (Homo sapiens, UniProt Q13464); experiment: CEREP protein kinase assay; format: biochemical
T8 construct: purchased CEREP Panlabs (Eurofins)

SIK = target: T9, SIK (Homo sapiens, UniProt P57059); experiment: CEREP protein kinase assay; format: biochemical
T9 construct: purchased CEREP Panlabs (Eurofins)

TRKB = target: T10, TRKB (Homo sapiens, UniProt Q16620); experiment: CEREP protein kinase assay; format: biochemical
T10 construct: purchased CEREP Panlabs (Eurofins)

[1] = male, CD-1, whole blood (dried blood spots), oral 10 mg/kg

T2 sequence (P06493 whole entry): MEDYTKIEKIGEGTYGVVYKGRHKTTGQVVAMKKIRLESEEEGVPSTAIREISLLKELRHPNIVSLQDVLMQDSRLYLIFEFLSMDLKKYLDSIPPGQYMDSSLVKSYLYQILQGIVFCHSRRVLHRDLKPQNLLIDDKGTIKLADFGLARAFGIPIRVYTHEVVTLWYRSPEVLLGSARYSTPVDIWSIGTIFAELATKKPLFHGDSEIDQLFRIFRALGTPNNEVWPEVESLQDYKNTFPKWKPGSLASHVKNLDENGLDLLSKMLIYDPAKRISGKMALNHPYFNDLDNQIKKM
T2 sequence (P14635 whole entry partner): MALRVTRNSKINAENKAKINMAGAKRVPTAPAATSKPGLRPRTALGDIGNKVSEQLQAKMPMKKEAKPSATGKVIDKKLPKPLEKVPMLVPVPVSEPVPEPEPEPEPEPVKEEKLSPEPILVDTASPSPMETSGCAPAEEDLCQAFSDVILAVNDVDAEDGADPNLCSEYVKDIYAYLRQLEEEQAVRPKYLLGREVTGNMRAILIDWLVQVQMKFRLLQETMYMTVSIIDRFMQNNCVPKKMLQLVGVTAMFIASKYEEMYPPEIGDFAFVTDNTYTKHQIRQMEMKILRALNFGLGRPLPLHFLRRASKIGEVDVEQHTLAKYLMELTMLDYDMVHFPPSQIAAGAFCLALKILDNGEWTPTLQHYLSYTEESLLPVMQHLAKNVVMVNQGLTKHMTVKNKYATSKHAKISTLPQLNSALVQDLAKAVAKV
T4 sequence (P68400 whole entry): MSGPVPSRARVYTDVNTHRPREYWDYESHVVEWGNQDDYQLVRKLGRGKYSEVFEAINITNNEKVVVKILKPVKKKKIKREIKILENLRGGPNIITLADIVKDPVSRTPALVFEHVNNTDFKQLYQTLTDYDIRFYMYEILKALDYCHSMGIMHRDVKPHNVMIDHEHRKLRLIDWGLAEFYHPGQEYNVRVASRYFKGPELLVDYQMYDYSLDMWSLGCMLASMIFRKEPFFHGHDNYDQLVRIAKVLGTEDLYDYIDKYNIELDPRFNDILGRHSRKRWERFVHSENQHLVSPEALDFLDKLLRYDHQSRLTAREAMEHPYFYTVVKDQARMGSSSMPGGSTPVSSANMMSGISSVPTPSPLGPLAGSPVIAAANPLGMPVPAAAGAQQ
T10 sequence (Q16620 32-822): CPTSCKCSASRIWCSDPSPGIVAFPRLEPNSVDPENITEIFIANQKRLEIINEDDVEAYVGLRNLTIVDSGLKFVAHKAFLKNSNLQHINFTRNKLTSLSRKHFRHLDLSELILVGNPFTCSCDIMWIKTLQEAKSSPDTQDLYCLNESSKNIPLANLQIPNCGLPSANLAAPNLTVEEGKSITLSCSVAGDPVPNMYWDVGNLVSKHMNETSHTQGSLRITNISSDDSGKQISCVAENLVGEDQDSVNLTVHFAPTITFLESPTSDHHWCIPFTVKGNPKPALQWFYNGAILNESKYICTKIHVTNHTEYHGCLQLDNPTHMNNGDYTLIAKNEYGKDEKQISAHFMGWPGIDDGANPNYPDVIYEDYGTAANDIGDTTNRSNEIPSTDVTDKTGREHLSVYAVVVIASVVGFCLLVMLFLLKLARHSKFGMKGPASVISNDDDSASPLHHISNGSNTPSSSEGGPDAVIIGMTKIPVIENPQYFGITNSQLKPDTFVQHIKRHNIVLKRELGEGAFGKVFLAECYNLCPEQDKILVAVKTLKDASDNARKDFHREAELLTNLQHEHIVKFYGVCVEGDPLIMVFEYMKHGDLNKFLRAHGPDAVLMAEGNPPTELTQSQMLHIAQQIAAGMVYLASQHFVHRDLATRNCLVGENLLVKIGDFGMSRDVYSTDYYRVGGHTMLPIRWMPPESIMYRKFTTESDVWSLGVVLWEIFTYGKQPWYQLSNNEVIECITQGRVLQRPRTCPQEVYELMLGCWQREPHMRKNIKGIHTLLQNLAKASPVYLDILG
T8 sequence (Q13464 whole entry): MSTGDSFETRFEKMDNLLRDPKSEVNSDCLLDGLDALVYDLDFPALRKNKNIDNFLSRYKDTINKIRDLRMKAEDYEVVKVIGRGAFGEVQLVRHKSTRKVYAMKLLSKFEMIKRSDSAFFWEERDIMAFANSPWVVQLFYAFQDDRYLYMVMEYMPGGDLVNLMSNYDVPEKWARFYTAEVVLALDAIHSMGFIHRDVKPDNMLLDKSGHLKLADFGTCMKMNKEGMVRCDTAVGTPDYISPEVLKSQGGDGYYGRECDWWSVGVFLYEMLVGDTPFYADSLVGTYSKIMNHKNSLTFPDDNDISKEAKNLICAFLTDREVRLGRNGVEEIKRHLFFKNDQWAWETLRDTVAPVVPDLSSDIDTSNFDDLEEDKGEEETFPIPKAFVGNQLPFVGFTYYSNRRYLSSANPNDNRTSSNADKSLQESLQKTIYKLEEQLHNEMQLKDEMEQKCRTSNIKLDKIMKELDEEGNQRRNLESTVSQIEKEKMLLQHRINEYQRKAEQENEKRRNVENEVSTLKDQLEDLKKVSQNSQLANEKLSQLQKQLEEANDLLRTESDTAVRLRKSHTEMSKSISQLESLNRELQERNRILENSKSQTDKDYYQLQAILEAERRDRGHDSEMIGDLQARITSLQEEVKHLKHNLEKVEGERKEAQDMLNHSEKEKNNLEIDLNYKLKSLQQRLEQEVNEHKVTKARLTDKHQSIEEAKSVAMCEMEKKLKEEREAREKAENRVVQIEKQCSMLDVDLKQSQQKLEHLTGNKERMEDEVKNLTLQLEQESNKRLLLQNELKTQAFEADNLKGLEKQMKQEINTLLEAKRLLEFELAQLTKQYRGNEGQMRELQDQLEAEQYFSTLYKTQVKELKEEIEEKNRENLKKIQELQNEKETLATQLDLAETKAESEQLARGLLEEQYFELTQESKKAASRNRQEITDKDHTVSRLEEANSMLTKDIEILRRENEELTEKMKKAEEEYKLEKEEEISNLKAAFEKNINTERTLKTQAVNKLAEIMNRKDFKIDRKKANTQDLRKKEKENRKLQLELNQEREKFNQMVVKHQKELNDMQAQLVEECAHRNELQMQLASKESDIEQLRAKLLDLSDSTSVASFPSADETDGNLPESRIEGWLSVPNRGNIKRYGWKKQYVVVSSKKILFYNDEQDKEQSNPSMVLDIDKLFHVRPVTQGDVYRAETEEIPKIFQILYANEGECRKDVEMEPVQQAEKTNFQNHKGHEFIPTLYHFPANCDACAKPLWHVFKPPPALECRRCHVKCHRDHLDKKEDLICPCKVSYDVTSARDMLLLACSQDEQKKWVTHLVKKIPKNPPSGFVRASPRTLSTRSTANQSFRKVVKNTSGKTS
T3 sequence (P11802 whole entry): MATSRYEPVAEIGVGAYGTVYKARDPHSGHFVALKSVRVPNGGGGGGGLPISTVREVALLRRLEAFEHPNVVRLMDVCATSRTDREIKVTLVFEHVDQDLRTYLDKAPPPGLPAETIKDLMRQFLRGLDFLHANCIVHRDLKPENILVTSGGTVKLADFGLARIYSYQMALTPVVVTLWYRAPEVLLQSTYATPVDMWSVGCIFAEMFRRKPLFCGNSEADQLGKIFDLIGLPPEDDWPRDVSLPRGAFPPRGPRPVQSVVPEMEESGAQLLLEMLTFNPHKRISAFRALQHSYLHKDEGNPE
T3 sequence (P24385 whole entry partner): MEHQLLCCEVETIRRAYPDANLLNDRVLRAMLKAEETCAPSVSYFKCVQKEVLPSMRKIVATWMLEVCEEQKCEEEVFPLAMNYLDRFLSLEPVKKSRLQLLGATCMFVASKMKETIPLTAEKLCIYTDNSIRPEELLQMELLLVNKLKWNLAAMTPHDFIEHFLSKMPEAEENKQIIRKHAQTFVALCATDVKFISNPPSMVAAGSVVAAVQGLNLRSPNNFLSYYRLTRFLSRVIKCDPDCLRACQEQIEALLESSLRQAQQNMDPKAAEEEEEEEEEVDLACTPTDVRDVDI
T9 sequence (P57059 whole entry): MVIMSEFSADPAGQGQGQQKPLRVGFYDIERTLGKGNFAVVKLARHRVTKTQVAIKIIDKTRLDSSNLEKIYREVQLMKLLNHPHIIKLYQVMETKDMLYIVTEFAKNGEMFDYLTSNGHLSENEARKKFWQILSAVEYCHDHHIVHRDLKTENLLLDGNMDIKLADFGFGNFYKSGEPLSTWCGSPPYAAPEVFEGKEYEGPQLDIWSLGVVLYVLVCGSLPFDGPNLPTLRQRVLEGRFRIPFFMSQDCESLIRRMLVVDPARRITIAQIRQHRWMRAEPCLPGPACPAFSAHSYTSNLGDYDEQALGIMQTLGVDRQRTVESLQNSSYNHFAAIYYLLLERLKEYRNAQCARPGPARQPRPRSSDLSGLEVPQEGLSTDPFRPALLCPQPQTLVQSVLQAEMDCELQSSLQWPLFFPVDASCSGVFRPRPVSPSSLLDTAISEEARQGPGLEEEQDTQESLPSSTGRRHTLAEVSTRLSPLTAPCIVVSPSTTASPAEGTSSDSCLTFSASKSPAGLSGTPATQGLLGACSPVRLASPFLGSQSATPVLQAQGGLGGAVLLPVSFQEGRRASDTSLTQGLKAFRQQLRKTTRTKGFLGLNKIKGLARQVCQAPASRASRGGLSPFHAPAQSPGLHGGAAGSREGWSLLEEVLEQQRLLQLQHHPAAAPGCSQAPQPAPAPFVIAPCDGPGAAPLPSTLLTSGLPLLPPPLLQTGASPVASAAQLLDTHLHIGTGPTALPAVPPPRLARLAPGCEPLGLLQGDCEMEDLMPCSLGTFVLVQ

For `O=c1[nH]ccc2cc(F)c(NS(=O)(=O)c3ccc(N4CC[C@@H](O)C4)s3)cc12` [LSN3213128, N-(6-Fluoro-1-oxo-1,2-dihydroisoquinolin-7-yl)-5-[(3R)-3-hydroxypyrrolidin-1-yl]thiophene-2-sulfonamide], the Vd (Pharmacokinetic studies; male, CD-1, whole blood (dried blood spots), intravenous 1 mg/kg, read-out: volume of distribution) was 0.779 ± 0.17 L/kg, the AUC (Pharmacokinetic studies; [1]) was 20.2 ± 4.52 µM·h and the Cmax (Pharmacokinetic studies; [1]) was 4.57 ± 0.559 µM. The bioavailability (Pharmacokinetic studies; male, CD-1, whole blood (dried blood spots), oral 10 mg/kg vs intravenous 1 mg/kg) was 24.6 ± 4.6%, the half-life (Pharmacokinetic studies; oral 10 mg/kg) was 2.4 ± 0.3 h and the “unbound Cmax” value (Pharmacokinetic studies; oral 10 mg/kg) was 0.251 ± 0.031 µM. The “tumor ZTP” value (MDA-MB-231met2 xenograft; MDA-MB-231met2 tumors) was “No detectable changes”, the “tumor ZMP levels” value (MDA-MB-231met2 xenograft; MDA-MB-231 met2 tumors, 30 and 60 mg/kg) was “dramatically elevated” and the inhibition at 0.2 µM (BRK; @ 0.2 uM) was -32.5%. The inhibition at 2 µM (BRK; @ 2 uM) was -9.31%, the inhibition at 20 µM (BRK; @ 20 uM) was -3.2% and the inhibition at 0.2 µM (CDK1; @ 0.2 uM) was -4.14%. For the same compound, the inhibition at 2 µM (CDK1; @ 2 uM) was 4.5%, the inhibition at 20 µM (CDK1; @ 20 uM) was 5.99% and the inhibition at 0.2 µM (CDK4; @ 0.2 uM) was -1.51%. The inhibition at 2 µM (CDK4; @ 2 uM) was 2.45%, the inhibition at 20 µM (CDK4; @ 20 uM) was 37.2% and the inhibition at 0.2 µM (CK2; @ 0.2 uM) was -7.53%. It also gave an inhibition at 2 µM (CK2; @ 2 uM) of -0.227%, an inhibition at 20 µM (CK2; @ 20 uM) of 1.58% and an inhibition at 0.2 µM (DDR2; @ 0.2 uM) of -16.5%. For the same compound, the inhibition at 2 µM (DDR2; @ 2 uM) was -13.4%, the inhibition at 20 µM (DDR2; @ 20 uM) was -3.1% and the inhibition at 0.2 µM (MAPKAPK5; @ 0.2 uM) was 3.51%. For the same compound, the inhibition at 2 µM (MAPKAPK5; @ 2 uM) was 13.3%, the inhibition at 20 µM (MAPKAPK5; @ 20 uM) was -3.2% and the inhibition at 0.2 µM (PKAa; @ 0.2 uM) was -7.44%. It also gave an inhibition at 2 µM (PKAa; @ 2 uM) of -0.808%, an inhibition at 20 µM (PKAa; @ 20 uM) of 3.8% and an inhibition at 0.2 µM (ROCK1; @ 0.2 uM) of 7.67%. It also gave an inhibition at 2 µM (ROCK1; @ 2 uM) of 10.9%, an inhibition at 20 µM (ROCK1; @ 20 uM) of 21.3% and an inhibition at 0.2 µM (SIK; @ 0.2 uM) of -1.42%. For the same compound, the inhibition at 2 µM (SIK; @ 2 uM) was 3.69%, the inhibition at 20 µM (SIK; @ 20 uM) was 3.12% and the inhibition at 0.2 µM (TRKB; @ 0.2 uM) was 2.14%. The inhibition at 2 µM (TRKB; @ 2 uM) was 3.76% and the inhibition at 20 µM (TRKB; @ 20 uM) was 20.3%.
